This data set in a line: Determination of the solubility in cosmetic solvents. To be noted: saturated solution stirred 7 days at room temperature, concentration by HPLC; for solubility Finsolv TN: C12-15 Alkylbenzoate; for solubility Myritol 318: Capric/Caprylic Triglyceride. It is filed as physicochemical.

Protocol: 1.5 g of a cosmetic solvent (Capric/Caprylic Triglyceride (Mygliol 318) and C12-15 Alkylbenzoate (Finsolv TN)) is saturated with the respective Benzotriazol-derivative by adding 0.2 g portions while stirring at room temperature. The saturated solution is stirred for 7 days at room temperature. 1 ml of the supernatant is centrifuged and filtered in order to obtain a clear solution. The concentration of the Benzotriazol-derivative is determined by means of HPLC.

As to `Cc1cc(COC(=O)CC(C)C)c(O)c(-n2nc3ccccc3n2)c1` [Example 8, 3-Methyl-butyric Acid 3-(2H-benzotriazol-2-yl)-2-hydroxy-5-methyl-benzyl Ester], the “solubility Finsolv TN” value is on record as 8% and the “solubility Myritol 318” value was 6%.

Take `Cc1cc(COCc2cc(C)cc(-n3nc4ccccc4n3)c2O)c(O)c(-n2nc3ccccc3n2)c1` [Example 9, 3,3′-Bis(2H-benzotriazol-2-yl)-2,2′-dihydroxy-5,5′-dimethylbenzyl Ether]: the “solubility Finsolv TN” value came to 0.02% and the “solubility Myritol 318” value is listed as 0.01%.

Turning to `CCCCC(CC)C(=O)OCc1cc(C)cc(-n2nc3ccccc3n2)c1O` (stereo not shown) [Example 7, 2-Ethyl-hexanoic Acid 3-(2H-benzotriazol-2-yl)-2-hydroxy-5-methyl-benzyl Ester], the “solubility Finsolv TN” value stood at 42% and the “solubility Myritol 318” value is recorded as 24%.

For the molecule `Cc1cc(COCCC(C)C)c(O)c(-n2nc3ccc(Cl)cc3n2)c1` [Example 6, 2-(5-Chloro-2H-benzotriazol-2-yl)-4-methyl-6-(3-methyl-butoxymethyl)-phenol], the “solubility Finsolv TN” value is 19% and the “solubility Myritol 318” value worked out at 12%.

With `Cc1cc(COCCC(C)C)c(O)c(-n2nc3ccccc3n2)c1` [Example 4, 2-(2H-Benzotriazol-2-yl)-6-(3-methyl-butoxymethyl)-4-methyl-phenol], the “solubility Finsolv TN” value worked out at 37% and the “solubility Myritol 318” value was found to be 36%.

The record behind these values is patent US8895754B2, “Process to make UV radiation absorbing 2-phenyl-1,2,3,-benzotriazoles” (DSM IP Assets B.V., priority 2010, dated 2014).
